ChEMBL document CHEMBL4002634, “Benzoflavones as cholesterol esterase inhibitors: Synthesis, biological evaluation and docking studies” (Bioorg Med Chem Lett, 2017)
Active and inactive are the calls of the source. The calls are words filed in the database; no cut-off is given here.

Legend:
[1] = molecular target: T1, Carboxylic ester hydrolase (Sus scrofa) (UniProt A0A286ZKB1); test: Inhibition of porcine cholesterol esterase at 25 nM using para-nitrophenyl butyrate as substrate after 5 mins in presence of sodium taurocholate by spectrophotometric method relative to control
T1 sequence (whole entry): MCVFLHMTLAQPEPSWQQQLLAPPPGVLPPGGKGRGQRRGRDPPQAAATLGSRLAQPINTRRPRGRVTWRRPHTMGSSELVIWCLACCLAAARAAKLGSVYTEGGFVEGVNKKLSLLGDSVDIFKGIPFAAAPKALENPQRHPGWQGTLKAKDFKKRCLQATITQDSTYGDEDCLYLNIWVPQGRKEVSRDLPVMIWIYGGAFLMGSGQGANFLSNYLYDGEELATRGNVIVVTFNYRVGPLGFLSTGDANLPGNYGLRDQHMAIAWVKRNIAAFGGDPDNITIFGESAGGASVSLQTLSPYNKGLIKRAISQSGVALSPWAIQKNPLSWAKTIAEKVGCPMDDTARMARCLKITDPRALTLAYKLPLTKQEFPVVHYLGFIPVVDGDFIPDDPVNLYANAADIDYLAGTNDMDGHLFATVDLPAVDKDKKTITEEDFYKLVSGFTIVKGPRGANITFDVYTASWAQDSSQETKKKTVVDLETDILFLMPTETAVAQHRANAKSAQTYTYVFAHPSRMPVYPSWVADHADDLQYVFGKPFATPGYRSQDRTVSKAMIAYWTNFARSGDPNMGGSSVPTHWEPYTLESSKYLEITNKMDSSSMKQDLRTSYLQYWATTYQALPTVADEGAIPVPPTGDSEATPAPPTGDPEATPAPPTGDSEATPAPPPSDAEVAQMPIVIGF

[2] = molecular target: T1, Carboxylic ester hydrolase (Sus scrofa); test: Inhibition of porcine cholesterol esterase at 1 nM using para-nitrophenyl butyrate as substrate after 5 mins in presence of sodium taurocholate by spectrophotometric method relative to control
[3] = molecular target: T2, Carboxylic ester hydrolase (Sus scrofa, UniProt A0A286ZKB1); test: Inhibition of porcine cholesterol esterase using para-nitrophenyl butyrate as substrate after 5 mins in presence of sodium taurocholate by spectrophotometric method; settings: read-out: IC50
T2 sequence (A0A286ZKB1 whole entry): T1 sequence (whole entry)

[4] = molecular target: T1, Carboxylic ester hydrolase (Sus scrofa); test: Inhibition of porcine cholesterol esterase at 50 nM using para-nitrophenyl butyrate as substrate after 5 mins in presence of sodium taurocholate by spectrophotometric method relative to control
[5] = molecular target: T1, Carboxylic ester hydrolase (Sus scrofa); test: Inhibition of porcine cholesterol esterase at 10 nM using para-nitrophenyl butyrate as substrate after 5 mins in presence of sodium taurocholate by spectrophotometric method relative to control
[6] = molecular target: T1, Carboxylic ester hydrolase (Sus scrofa); test: Mixed-type inhibition of porcine cholesterol esterase at 1 to 50 nM using para-nitrophenyl butyrate as substrate after 5 mins in presence of sodium taurocholate by Line-weaver-Burk plot analysis
[7] = molecular target: T1, Carboxylic ester hydrolase (Sus scrofa); test: Inhibition of porcine cholesterol esterase at 5 nM using para-nitrophenyl butyrate as substrate after 5 mins in presence of sodium taurocholate by spectrophotometric method relative to control

Row | SMILES | inhibition [1] [%] | inhibition [2] [%] | IC50 [3] [nM] | inhibition [4] [%] | inhibition [5] [%] | inhibition [6] | inhibition [7] [%]
1 | O=c1cc(-c2cc(F)cc(F)c2)oc2c1ccc1ccccc12 | 96 | 60 | 0.78 | 100 | 90 | Active | 80
2 | O=c1cc(-c2cccc(F)c2)oc2c1ccc1ccccc12 | 83 | 50 | 5.24 | 87 | 79 |  | 64
